Read-outs that look alike come from different tables or passages of the source.
How the values were obtained:
EGFR = biological target: T1, EGFR (Homo sapiens, UniProt P00533); test: EGFR kinase inhibition, ADP-Glo assay; format: biochemical; conditions: ADP-Glo; mean ± SD of at least two independent experiments; read-out: Enzymatic inhibition IC50 (nM) EGFR
T1 construct: 2 μl (50 ng/ml) of EGFR kinase
Description: The EGFR kinase inhibition activities of the target compounds were evaluated by the ADP-Glo™ assay. The ADP-Glo™ kinase detection kit is a luminescence kinase detection approach that detects the amount of ADP produced by the kinase reaction. After ADP is converted into ATP, ATP can be used as the substrate of the luciferase-catalyzed reaction to generate an optical signal, which is positively correlated with kinase activity. […] The above-prepared systems were sealed and incubated at room temperature for 2 h, and 5 μl of ADP-GLO was added to terminate the kinase reaction. Then, the culture plate was sealed and incubated in a thermostatic oscillator for 40 min to fully consume the remaining ATP. The luciferase/luciferin reaction was adopted to determine the newly generated ATP level.

HT-29 cells = test: Anti-proliferative assay, standard CCK-8 method; format: cell-based, human; conditions: mean ± SD of at least three independent experiments, read-out: Proliferative inhibition (IC50, μM) HT-29
Source text: (§1) All reagents and solvents met the criteria of analytical reagents before use. All cancer cell lines (A549, human non-small-cell lung cell line; HT-29, human colonic adenocarcinoma cell line; MCF-7, human breast cancer cell line) were purchased from Stem Cell Bank, Chinese Academy of Sciences. […] ADP-Glo™ kinase assay kits were provided by Promega (Beijing) Biotech Co., Ltd. (Beijing, China). All kinase subtypes were supplied by SignalChem (BC, Canada).
(§2) The designed 4-anilinoquinazoline derivatives were evaluated for their antitumor bioactivities in vitro against three human tumor cell lines (A549, HT-29, and MCF-7) using the standard CCK-8 method. The CCK-8 method is based on WST-8 dye, 2-(2-methoxy-4-nitrophenyl)-3-(4-nitrophenyl)-5-(2,4-disulfophenyl)-2H-tetrazolium. WST-8 can be bio-reduced by dehydrogenases in mitochondria into orange water-soluble formazan products. Briefly, selected cancer cells in the logarithmic growth phase (1 × 10^4) were inoculated in 96-well plates and further cultured in the incubator for 24 h. First, the target compounds were diluted to different concentrations with culture medium with each dilution gradually diluted from the highest concentration solution. Second, the original culture medium was removed after the cells were completely adherent to the wall, and the compounds at various concentrations prepared above were added. In this experiment, a control group and a blank group were set: the former was treated with 0.1% DMSO solution, and the latter was treated with only the culture medium. […] A microplate reader was adopted to record the absorbance at 450 nm, and in this assay, gefitinib, erlotinib, and sorafenib were used as the reference drugs.

MCF-7 cells = test: Anti-proliferative assay, standard CCK-8 method; format: cell-based, human; conditions: read-out: Proliferative inhibition (IC50, μM) MCF-7
Source text: as §1, §2

A549 cells = test: Anti-proliferative assay, standard CCK-8 method; format: cell-based, human; conditions: mean ± SD of at least three independent experiments, read-out: Proliferative inhibition (IC50, μM) A549
Source text: as §1, §2

[1] = tested on: A549, HT-29, and MCF-7 cells; test: Anti-proliferative assay, CCK-8, summaries over all three cell lines; format: cell-based; conditions: Homo sapiens, span over A549, HT-29 and MCF-7 cells, read-out: IC50 against the selected cell lines
Source text: as §1, §2

[2] = Homo sapiens, MCF7, mean ± SD of at least three independent experiments
[3] = mean ± SD of at least three independent experiments

Molecule	IC50 (EGFR)	IC50 (HT-29 cells; Homo sapiens)	IC50 (MCF-7 cells; [2])	IC50 (A549 cells; Homo sapiens)	melting point	IC50 (HT-29 cells)	IC50 (MCF-7 cells; [3])	IC50 (A549 cells)	IC50 [1]
COc1ccc(NC(=O)Nc2ccc3ncnc(Nc4ccc(C)cc4)c3c2)cc1 [Compound 7s]	108 ± 2.64 nM	46.2 ± 0.57 µM	47.6 ± 0.76 µM	> 50 µM	259.5 to 260.1 °C				
O=C(Nc1ccc(Cl)c(C(F)(F)F)c1)Nc1ccc2ncnc(Nc3ccc(Br)cc3)c2c1 [Compound 7k]		2.3 ± 0.5 µM	3.54 ± 0.07 µM	2.79 ± 0.44 µM	269.8 to 271.1 °C				
1-(4-chloro-3-(trifluoromethyl) phenyl)-3-(4-((2,3-dimethylphenyl) amino)-3,4-dihydroquinazolin-6-yl) urea [Compound 7t]	728.1 ± 1.65 nM					48.3 ± 1.9 µM	> 50 µM	> 50 µM	
C#Cc1cccc(Nc2ncnc3cc(OCCOC)c(OCCOC)cc23)c1 [Erlotinib, erlotinib, reference compound]		22.8 ± 1.12 µM	11.4 ± 0.43 µM	23.2 ± 0.51 µM					1.84 to 23.2 µM
Cc1ccc(Nc2ncnc3ccc(NC(=O)Nc4ccc(F)cc4)cc23)cc1 [Compound 7o]	123.9 ± 1.09 nM	7.83 ± 0.97 µM	33.7 ± 10.1 µM	35.3 ± 0.57 µM	247.2 to 248.4 °C				
COc1ccc(NC(=O)Nc2ccc3ncnc(Nc4ccc(Br)cc4)c3c2)cc1 [Compound 7q]	470.4 ± 1.28 nM	36.96 ± 0.17 µM	17.9 ± 0.89 µM	5.21 ± 0.3 µM	267.1 to 268.2 °C				
COc1ccc(NC(=O)Nc2ccc3ncnc(Nc4ccc(F)cc4)c3c2)cc1 [Compound 7r]	59.7 ± 1.31 nM	48.21 ± 0.23 µM	46.1 ± 1.98 µM	> 50 µM	250.2 to 251.8 °C				
Cc1ccc(NC2NC=Nc3ccc(NC(=O)Nc4ccc(Cl)c(C(F)(F)F)c4)cc32)cc1 (stereo not drawn) [Compound 7m, 1-(4-chloro-3-(trifluoromethyl)phenyl)-3-(4-(p-tolylamino)-3,4-dihydroquina-zolin-6-yl) urea]						2.61 ± 1.25 µM	5.53 ± 0.39 µM	5.6 ± 0.31 µM	
O=C(Nc1ccccc1)Nc1ccc2ncnc(Nc3ccc(Br)cc3F)c2c1 [Compound 7c]	20.1 ± 2.21 nM	5.92 ± 1.04 µM	8.57 ± 0.27 µM	6.16 ± 0.45 µM	256 to 256.8 °C				
O=C(Nc1ccccc1)Nc1ccc2ncnc(Nc3ccc(F)c(Cl)c3)c2c1 [Compound 7d]	11.8 ± 0.36 nM	39.2 ± 2.01 µM	44.2 ± 0.97 µM	38.65 ± 0.21 µM	233 to 233.7 °C				
CNC(=O)c1cc(Oc2ccc(NC(=O)Nc3ccc(Cl)c(C(F)(F)F)c3)cc2)ccn1 [Sorafenib, sorafenib, reference compound]		2.27 ± 0.43 µM	3.47 ± 0.39 µM	1.84 ± 0.17 µM					1.84 to 23.2 µM
1-(4-chloro-3-(trifluoromethyl) phenyl)-3-(4-((2,3-dimethylphenyl) amino)-3,4-dihydroquinazolin-6-yl) urea [Compound 7n]						2.67 ± 1.02 µM	3.11 ± 0.3 µM	2.67 ± 0.76 µM	
O=C(Nc1ccccc1)Nc1ccc2ncnc(Nc3cccc(Br)c3)c2c1 [Compound 7a]		4.66 ± 0.56 µM	15.9 ± 2.28 µM	5.81 ± 0.84 µM	250 to 250.9 °C				
Cc1cccc(Nc2ncnc3ccc(NC(=O)Nc4ccccc4)cc23)c1C [Compound 7h]	19.7 ± 1.87 nM	> 50 µM	> 50 µM	> 50 µM	242.8 to 243.7 °C				> 50 µM
O=C(Nc1ccccc1)Nc1ccc2ncnc(Nc3ccc(F)cc3)c2c1 [Compound 7f]	11.7 ± 0.79 nM	48.3 ± 0.78 µM	44.3 ± 1.12 µM	> 50 µM	252.8 to 253.5 °C				
COc1ccc(NC(=O)Nc2ccc3ncnc(Nc4cccc(C)c4C)c3c2)cc1 [Compound 7p]	58.1 ± 1.99 nM	11.1 ± 0.39 µM	40.2 ± 2.13 µM	9.34 ± 0.73 µM	241.1 to 242.7 °C				

Source: publication PMC8187944, “Discovery of Potent EGFR Inhibitors With 6-Arylureido-4-anilinoquinazoline Derivatives” (Frontiers in Pharmacology, 2021)
